The source of these data is ChEMBL document CHEMBL1131947, “Syntheses and biological activities of bis(3-indolyl)thiazoles, analogues of marine bis(indole)alkaloid nortopsentins” (1999).

Common to all, as to type: functional
Assay [1] relates to HCT-15. Nature of the assay: In vitro growth inhibitory activity against human HCT-15 cancer cell line.
Assay [2] has as its system K562. The assay can be described thus: In vitro growth inhibitory activity against human K-562 cancer cell line.
Assay [3] deals with MOLT-4. The assay can be described thus: In vitro growth inhibitory activity against human MOLT-4 cancer cell line.
In assay [4] the test system is MCF7. The assay can be described thus: In vitro growth inhibitory activity against human MCF-7 cancer cell line.
For assay [5], the system named is MDA-N. Nature of the assay: In vitro growth inhibitory activity against human MDA-N cancer MDA-N cell line.
Assay [6] has as its system NCI-H23. Nature of the assay: In vitro growth inhibitory activity against human NCI-H23 cancer cell line.
The subject of assay [7] is SR. The assay can be described thus: In vitro growth inhibitory activity against human SR cancer cell line.
Assay [8] deals with SF-295. Nature of the assay: In vitro growth inhibitory activity against human SF-295 cancer cell line.

For the compound `Brc1ccc2c(-c3nc(-c4c[nH]c5ccccc45)cs3)c[nH]c2c1`, the GI50 – broadly, the concentration giving 50% growth inhibition – in assay [1] came to 17.8 µM; in assay [2], 5.61 µM; in assay [3], 31.2 µM; in assay [4] it was 27.2 µM; in assay [5], 31.5 µM; in assay [6], 25.8 µM. Further, the GI50 is 12.2 µM in assay [7] and 9.23 µM in assay [8].
Turning to `Brc1ccc2c(-c3csc(-c4c[nH]c5ccccc45)n3)c[nH]c2c1`, the GI50 amounted to 15.2 µM in assay [1]; 18.8 µM in assay [2]; 19.9 µM in assay [3]; 16.7 µM in assay [4]; 19.2 µM in assay [5]; 14.5 µM in assay [6]. The 50% growth inhibitory concentration (GI50) in assay [7] is 6.36 µM; in assay [8], 14.6 µM.
On to `c1ccc2c(-c3csc(-c4c[nH]c5ccccc45)n3)c[nH]c2c1`, for which the GI50 was greater than 100 µM in assay [1]; 3.27 µM in assay [2]; 5.31 µM in assay [3]; greater than 100 µM in assay [4]; 83 µM in assay [5]; greater than 100 µM in assay [6]. The GI50 was determined as 1.77 µM in assay [7] and 33.6 µM in assay [8].
For `Brc1ccc2c(-c3csc(-c4c[nH]c5cc(Br)ccc45)n3)c[nH]c2c1`, the GI50 in assay [1] was determined as 8.5 µM; in assay [2], 4.69 µM; in assay [3], 5.8 µM; in assay [4], 6.46 µM; in assay [5] it was 2.94 µM; in assay [6] it was 14.1 µM. The GI50 in assay [7] came to 3.4 µM; in assay [8], 4.81 µM.
